IC50 data for 25 molecules are collected here from patent publication US12606528B2, “Methods and materials for inhibiting NF-kB activity” (University of Pittsburgh - Of the Commonwealth System of …, priority 2019, dated 2026).

pIC50: −log10 of the molar value.

The test system of one assay is TNF release. Description: TNF assay: TNF release from LPS-stimulated human PBMCs (TNF ELISA). It counts as cell-based. Particulars: PBMC; human PBMCs; compounds 2 hours before LPS (10 ng/ml) for 18 hours; supernatant TNF ELISA; read-out: IC50 (TNF assay). The essentials: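 Human PBMCs at 10k/well pretreated with compound dilutions 2 h, then stimulated with LPS (10 ng/mL) for 18 h. TNF in supernatants quantified by ELISA; IC50 for inhibition of TNF release fitted from concentration–response.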

The next assay has as its system NF-κB. Description: NF-κB assay: THP1-NF-κB-LUC cells, LPS-stimulated secreted luciferase. Type of assay: cell-based. The conditions noted are these: THP1-NF-κB-LUC cells; compounds 2 hours before LPS (10 ng/mL) for 18 hours; secreted luciferase; read-out: IC50 (NF-κB assay). The method in brief: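 THP1-NF-κB-LUC cells (25k/well) were pretreated with compounds for 2 h, then stimulated with LPS (10 ng/mL) for 18 h. Secreted luciferase was measured and normalized to vehicle, and IC50 was fitted from the concentration series.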

With `CCC1Oc2cc(S(=O)(=O)Nc3ccc(F)cc3)c(Cl)cc2NC1=O` (centres unmarked) [BC19731], the negative-log IC50 (pIC50) was under 5.00 in the assay on TNF release and 6.00 to 7.00 in the assay on NF-κB.

For the molecule `CCC1Oc2c(cc(Cl)cc2S(=O)(=O)Nc2ccc(F)cc2)NC1=O` (centres unmarked) [BC19732], the pIC50 is 5.00 to 6.00 with TNF release and over 7.00 with NF-κB.

For the molecule `CCC1Oc2cc(S(=O)(=O)Nc3ccc(OC(F)(F)F)cc3)c(Cl)cc2NC1=O` (centres unmarked) [BC19733], the pIC50 in the assay with TNF release is under 5.00; in the assay with NF-κB, over 7.00.

Regarding `CCC1Oc2c(cc(Cl)cc2S(=O)(=O)Nc2ccc(OC(F)(F)F)cc2)NC1=O` (centres unmarked) [BC19734], the figures for the pIC50 in the assay on TNF release and in the assay on NF-κB were under 5.00 and over 7.00, respectively.

`CCC1Oc2cc(S(=O)(=O)Nc3ccc(F)c(F)c3)c(Cl)cc2NC1=O` (centres unmarked) [BC19735]: the pIC50 was under 5.00 with TNF release and over 7.00 in the assay on NF-κB.

`CCC1Oc2c(cc(Cl)cc2S(=O)(=O)Nc2ccc(F)c(F)c2)NC1=O` (centres unmarked) [BC19736]: the values for the pIC50 in the assay with TNF release and in the assay on NF-κB were under 5.00 and over 7.00, respectively.

Consider `CCC1Oc2cc(S(=O)(=O)Nc3ccccc3)c(Cl)cc2NC1=O` (centres unmarked) [BC19737], for which the pIC50 with TNF release was under 5.00; with NF-κB, 6.00 to 7.00.

Turning to `CCC1Oc2c(cc(Cl)cc2S(=O)(=O)Nc2ccccc2)NC1=O` (centres unmarked) [BC19738], the negative-log IC50 (pIC50) with TNF release was under 5.00; in the assay with NF-κB it was over 7.00.

Turning to `CCC1Oc2cc(S(=O)(=O)Nc3ccc(Cl)cc3)c(Cl)cc2NC1=O` (centres unmarked) [BC19739], the pIC50 in the assay on TNF release was under 5.00; with NF-κB, over 7.00.

`CCC1Oc2c(cc(Cl)cc2S(=O)(=O)Nc2ccc(Cl)cc2)NC1=O` (centres unmarked) [BC19740]: the negative logarithm of the IC50 (pIC50) with TNF release is under 5.00; in the assay on NF-κB, over 7.00.

For `CCc1ccc(NS(=O)(=O)c2cc3c(cc2Cl)NC(=O)C(CC)O3)cc1` (centres unmarked) [BC19741], the negative-log IC50 (pIC50) in the assay with TNF release is under 5.00; with NF-κB it was over 7.00.

For the molecule `CCc1ccc(NS(=O)(=O)c2cc(Cl)cc3c2OC(CC)C(=O)N3)cc1` (centres unmarked) [BC19742], the negative logarithm of the IC50 (pIC50) was 5.00 to 6.00 with TNF release and over 7.00 with NF-κB.

For the molecule `CCC1Oc2c(cc(Cl)cc2S(=O)(=O)Nc2ccc(OC)c(Cl)c2)NC1=O` (centres unmarked) [BC19744], the negative-log IC50 (pIC50) with TNF release was 5.00 to 6.00; with NF-κB, over 7.00.

As to `CCC1Oc2c(cc(Cl)cc2S(=O)(=O)Nc2ccc(C)c(Cl)c2)NC1=O` (centres unmarked) [BC19746], the pIC50 is under 5.00 with TNF release and over 7.00 in the assay on NF-κB.

`CCC1Oc2c(cc(Cl)cc2S(=O)(=O)Nc2ccc(F)cc2F)NC1=O` (centres unmarked) [BC19748]: the values for the pIC50 in the assay on TNF release and with NF-κB were under 5.00 and over 7.00, respectively.

As for `CCc1cccc(NS(=O)(=O)c2cc3c(cc2Cl)NC(=O)C(CC)O3)c1` (centres unmarked) [BC19749], the negative logarithm of the IC50 (pIC50) is under 5.00 with TNF release and 6.00 to 7.00 in the assay on NF-κB.

Regarding `CCc1cccc(NS(=O)(=O)c2cc(Cl)cc3c2OC(CC)C(=O)N3)c1` (centres unmarked) [BC19750], the negative-log IC50 (pIC50) with TNF release was under 5.00; in the assay with NF-κB, over 7.00.

Regarding `CCC1Oc2cc(S(=O)(=O)Nc3cccc(Cl)c3)c(Cl)cc2NC1=O` (centres unmarked) [BC19751], the pIC50 in the assay on TNF release is under 5.00; in the assay with NF-κB it was 6.00 to 7.00.

For `CCC1Oc2c(cc(Cl)cc2S(=O)(=O)Nc2cccc(Cl)c2)NC1=O` (centres unmarked) [BC19752], the pIC50 in the assay on TNF release was under 5.00; in the assay on NF-κB, over 7.00.

Turning to `CCC1Oc2cc(S(=O)(=O)Nc3ccc(C)cc3)c(Cl)cc2NC1=O` (centres unmarked) [BC19753], the values for the negative-log IC50 (pIC50) with TNF release and with NF-κB were under 5.00 and over 7.00, respectively.

As to `CCC1Oc2c(cc(Cl)cc2S(=O)(=O)Nc2ccc(C)cc2)NC1=O` (centres unmarked) [BC19754], the results for the negative-log IC50 (pIC50) in the assay on TNF release and in the assay on NF-κB were 5.00 to 6.00 and over 7.00, respectively.

With `CCC1Oc2cc(S(=O)(=O)Nc3ccc(F)cc3Cl)c(Cl)cc2NC1=O` (centres unmarked) [BC19755], the results for the pIC50 in the assay on TNF release and in the assay with NF-κB were under 5.00 and 5.00 to 6.00, respectively.

In the case of `CCC1Oc2c(cc(Cl)cc2S(=O)(=O)Nc2ccc(F)cc2Cl)NC1=O` (centres unmarked) [BC19756], the pIC50 in the assay with TNF release is under 5.00; with NF-κB it was over 7.00.

As for `CC(C)CC1Oc2c(cc(Br)cc2S(=O)(=O)Nc2ccc(OC(F)(F)F)cc2)NC1=O` (centres unmarked) [BC19757], the results for the pIC50 in the assay on TNF release and in the assay on NF-κB were under 5.00 and over 7.00, respectively.

Turning to `CC(C)CC1Oc2cc(S(=O)(=O)Nc3ccc(OC(F)(F)F)cc3)c(Br)cc2NC1=O` (centres unmarked) [BC19758], the pIC50 with TNF release is under 5.00; with NF-κB it was 6.00 to 7.00.

One may read the pIC50 as the negative decadic logarithm of the IC50, by convention in mol/L.
